What all share (assay type): cell-based
For one experiment, the system named is lung stem cells. The experiment is described as follows: In vitro organoid assays of clonal expansion of lung stem cells. Particulars: combination of p53 inhibitor with ROCK inhibitor (and TGFb inhibitors). An excerpt: Methods have been developed for expansion of stem cells using a combination of irradiated NIH-3T3 fibroblasts and a ROCK inhibitor (Y27632). […] Preliminary studies by the Inventors have shown that pharmacologic inhibition of p53 results in greater clonal expansion of lung stem cells compared to use of ROCK inhibitor Y27632 alone. Effects of combined treatment with Pifithrin-α and Y27632 are additive. Future studies will determine reversibility of Pifirthrin-α effects on stem cell expansion and differentiation. This includes: 1) validating that the observed increase in clonogenic potential of lung stem cells is the result of stem cell expansion, 2) application of the aforementioned pharmacologic intervention during in vitro stem cell expansion enhances their viability following cryopreservation, 3) that application of the aforementioned pharmacologic intervention during in vitro stem cell expansion enhances to functionally engraft into lung tissue following orthotopic lung transplantation, 4) that stem cells expanded under these conditions retain full capacity for differentiation into specialized lung epithelial cell types and 5) that established culture conditions can be used to expand human lung stem cells. […]

In another experiment the test system is distal progenitor cells. The experiment is described as follows: Differentiation potential of distal progenitors after 3D organoid culture with inhibitors. Particulars: 14 days with Pifithrin-alpha, ROCKi and SB431542, then 7 days without inhibitors, PDPN and SPC staining. The protocol:
FIG. 16. […] Distal progenitor cells were cultured as 3D organoids for 14 days in presence of Pifithrin-alpha, ROCKi and SB431542 followed by culture for 7 days in media without all three inhibitors. […] DAPI (blue) is a nuclear stain.
(§1) Distal progenitor cells were cultured as 3D organoids for 14 days in presence of Pifithrin-alpha, ROCKi and SB431542 followed by culture for 7 days in media without all three inhibitors. […] Addition of ROCKi (in presence of SB431542) increases the colony forming efficiency of freshly isolated club cells (regional stem cells which maintain certain cell types in the bronchiolar epithelium) whereas addition of Pifithrin alpha (in presence of SB431542) increases the size of Scgb1a1-derived organoids. Addition of both ROCKi (in presence of SB431542) increases the colony forming efficiency of freshly isolated murine proximal total epithelial cells (isolated from the murine trachea).

For experiment [1], the system named is freshly isolated murine distal total epithelial cells. The experiment is described as follows: 3D organoid culture of freshly isolated murine distal total epithelial cells. An excerpt: (§2) FIG. 1. Experimental design. Preconditioning of donor cells, including addition of small molecules such as ROCK inhibitor, pifithrin α, or combined together, and generation of organoids.
FIG. 3. […] Addition of the TGF-β inhibitor, SB 431542 to the culture medium increases the % colony forming efficiency of freshly isolated murine lung epithelial cells. Addition of Pifithrin α causes an increase in organoids size, while addition of ROCKi causes an increase in the colony forming efficiency.
FIG. 13. Effect of p53 and ROCKi inhibition on murine freshly isolated distal total epithelial cells in (+SB431542). Addition of both ROCKi and Pifithrin alpha (in presence of SB431542) increases the colony forming efficiency of freshly isolated murine distal total epithelial cells (isolated from the lung without trachea). […] Pifithrin alpha also causes an increase in the size of the organoids (C). […] The drop in mean diameter of the Pifithrin alpha+ROCKi group is likely due to space constraints because of the large number of organoids per well.
Further described herein is a cell culture including a quantity of human stem cells, or stem cell derived cells in a cell culture media including at least one molecule including: a RHO-kinase (ROCK) inhibitor, SMAD inhibitor, and p53 inhibitor. In other embodiments, the RHO-kinase inhibitor is Y27632 and the p53 inhibitor is Pifithrin α. In other embodiments, the stem cells are adult stem cells. In other embodiments, the stem cell derived cells are lung epithelial cells. In various embodiments, the aforementioned inhibitors are at a concentration of 0.1-1 uM, 1-5 uM, 5-10 uM, 10-25 uM, 25-50 uM, or 50 uM or more. In various embodiments, the p53 inhibitor is Pifithrin-alpha. For example, this includes a media formulated as follows: 5 mL FBS, 500 uL ITS (100×), 50 uL Fungizone, 500 uL Pen/Strep (100×), DMEM/F12 up to 50 mL, 5 uL SB431542, Pifithrin-alpha 10 uM, ROCKi (Y-27632 dihydrochloride)—10 uM. Also described herein is a quantity of organoids including cells made by the aforementioned methods. In various embodiments, the organoids include proximal and/or distal cells. In various embodiments, the distal cells are alveolar type II progenitors and/or Scgb1a1 positive club progenitor cells.

The subject of experiment [2] is freshly isolated murine proximal total epithelial cells. As to the kind of experiment: Organoid culture of murine tracheal progenitor (basal) cells. The protocol: FIG. 18. Effect of ROCK and P53 inhibition on murine tracheal progenitor (basal) cells. Addition of both ROCKi (in presence of SB431542) increases the colony forming efficiency of freshly isolated murine proximal total epithelial cells (isolated from the murine trachea).
as §1

In another experiment the test system is freshly isolated cells. As to the kind of experiment: Freshly isolated cells cultured with small molecules at different time points (proliferation). To be noted: different time points (FIG. 2).
From the text: as §2
FIG. 2. Freshly isolated cells cultured with small molecules at different time points.

[3] abbreviates: freshly isolated cells, in presence of SB431542 (FIG. 13).

Structures are written as SMILES.

For the compound `Cc1ccc(C(=O)Cn2c3c(sc2=N)CCCC3)cc1` [Pifithrin α], the “effect of combined use on clonal expansion / clonogenic potential of lung stem cells” value in the experiment with lung stem cells is given as “additive”. The differentiation potential result in the experiment with distal progenitor cells (listed as Pifithrin alpha) is “do not alter”; with distal progenitor cells (listed as Pifithrin-alpha), “did not alter”. For the same compound, the colony forming efficiency entry in experiment [1] (setting [3]) is on record as “increases”; in experiment [2] (cells isolated from the murine trachea, in presence of SB431542) it was “does not show a significant effect”. Moreover, in experiment [1] (setting [3]), the “size of the organoids (mean diameter)” value is reported as “increase”. Besides, the “survival and proliferation of the stem cells (inferred from CFE and organoid size)” value in experiment [1] (freshly isolated distal cells, FIG. 13) is “increase survival and proliferation”. In experiment [1] (freshly isolated murine lung epithelial cells (FIG. 3)), the organoids size entry was “increase”. Moreover, in experiment [2] (comparison of proximal and distal progenitor cell types), the “survival of proximal and distal progenitors (inferred from colony forming ability)” value is listed as “specific to distal stem cells”. In the experiment with freshly isolated cells, the proliferation of cells result is “have an effect on proliferation”.
